Patent publication US20210238170A1, “5,5-Difluoro- and 5-Fluoro-5-Methyl-C-Glycoside Derivatives Useful As Dual SGLT1 / SGLT2 Modulators” (Janssen Pharmaceutica NV, priority 2018, published 2021)
Read-outs that look alike come from different tables or passages of the source.

Legend:
human SGLT2 = target: T1, human SGLT2 (Homo sapiens, UniProt P31639); test: SGLT2 in vitro assay: Na-dependent 14C-AMG uptake in CHO-K1 cells stably expressing human SGLT2; type: cell-based; conditions: for IC50: compounds of formula (I) where R0 is fluoro; for inhibition at 0.3 µM: read-out: SGLT2 % Inh @ 0.3 μM
T1 construct: expressed in transfected cells
T1 sequence (P31639 1-672): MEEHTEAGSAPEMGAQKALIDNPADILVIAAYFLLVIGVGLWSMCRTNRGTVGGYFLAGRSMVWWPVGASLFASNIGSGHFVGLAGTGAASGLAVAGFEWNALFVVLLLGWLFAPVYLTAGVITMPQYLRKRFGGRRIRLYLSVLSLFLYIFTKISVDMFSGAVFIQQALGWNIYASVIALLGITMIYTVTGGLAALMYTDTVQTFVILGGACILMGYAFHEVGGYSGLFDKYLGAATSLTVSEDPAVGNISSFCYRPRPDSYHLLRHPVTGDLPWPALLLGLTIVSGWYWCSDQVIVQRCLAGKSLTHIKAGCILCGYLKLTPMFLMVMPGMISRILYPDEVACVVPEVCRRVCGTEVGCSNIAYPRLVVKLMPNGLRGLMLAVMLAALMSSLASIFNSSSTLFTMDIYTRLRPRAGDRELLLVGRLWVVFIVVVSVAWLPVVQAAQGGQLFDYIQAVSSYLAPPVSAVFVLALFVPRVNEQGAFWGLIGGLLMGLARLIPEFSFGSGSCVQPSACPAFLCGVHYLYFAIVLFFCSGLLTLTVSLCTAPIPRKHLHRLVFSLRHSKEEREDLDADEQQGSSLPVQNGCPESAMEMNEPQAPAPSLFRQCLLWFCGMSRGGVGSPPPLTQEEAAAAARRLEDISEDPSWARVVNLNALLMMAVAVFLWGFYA
Procedure, shortened: (§1)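 CHO-K1 cells stably expressing human SGLT1 or SGLT2, induced with 10 mM Na-butyrate for 24 h. Compounds (0.001–10 μM) in Na+-containing HEPES/Tris buffer pH 7.4 were applied for 10 min, then 14C-AMG ([…]) for 2 h at 37°C; Na-dependent uptake read by scintillation; %-inhibition or IC50.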

human SGLT1 = target: T2, human SGLT1 (Homo sapiens, UniProt P13866); test: SGLT1 in vitro assay: Na-dependent 14C-AMG uptake in CHO-K1 cells stably expressing human SGLT1; type: cell-based; conditions: for inhibition at 0.3 µM: read-out: SGLT1 % Inh @ 0.3 μM; for IC50: compounds of formula (I) where R0 is fluoro
T2 construct: expressed in transfected cells
T2 sequence (P13866 1-664): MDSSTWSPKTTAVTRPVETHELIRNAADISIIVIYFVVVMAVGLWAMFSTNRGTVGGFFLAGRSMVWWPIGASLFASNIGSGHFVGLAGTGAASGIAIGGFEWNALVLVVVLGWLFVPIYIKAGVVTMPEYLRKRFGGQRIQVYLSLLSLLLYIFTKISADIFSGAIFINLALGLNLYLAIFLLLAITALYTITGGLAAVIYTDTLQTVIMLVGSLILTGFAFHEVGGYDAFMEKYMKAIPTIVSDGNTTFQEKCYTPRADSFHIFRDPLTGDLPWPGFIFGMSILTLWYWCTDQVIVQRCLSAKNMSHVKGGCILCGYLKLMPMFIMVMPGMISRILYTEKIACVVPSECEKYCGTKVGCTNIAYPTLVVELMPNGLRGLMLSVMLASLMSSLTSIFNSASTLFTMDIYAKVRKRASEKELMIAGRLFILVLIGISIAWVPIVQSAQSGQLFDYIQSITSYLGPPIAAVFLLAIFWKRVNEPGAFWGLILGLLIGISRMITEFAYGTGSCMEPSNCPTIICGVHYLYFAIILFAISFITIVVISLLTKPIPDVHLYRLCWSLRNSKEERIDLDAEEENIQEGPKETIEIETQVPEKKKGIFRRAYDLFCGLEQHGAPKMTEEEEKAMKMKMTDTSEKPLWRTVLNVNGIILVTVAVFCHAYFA
Procedure, shortened: as §1

[1] = CHO-K1 cells stably expressing human SGLT2, 14C-AMG uptake
[2] = @ 0.3 μM, CHO-K1 cells stably expressing human SGLT1, 14C-AMG uptake
[3] = CHO-K1 cells stably expressing human SGLT1, 14C-AMG uptake
[4] = @ 0.3 μM, CHO-K1 cells stably expressing human SGLT2, 14C-AMG uptake

Row | SMILES | IC50 (human SGLT2; [1]) [nM] | inhibition at 0.3 µM (human SGLT1; [2]) [%] | IC50 (human SGLT1; [3]) [nM] | SGLT2 % Inh @ 0.3 μM (human SGLT2; [4]) [%] | SGLT1 % Inh @ 0.3 μM (human SGLT1; [2]) [%] | inhibition at 0.3 µM (human SGLT2; [4]) [%] | inhibition at 0.3 µM (human SGLT2; 0.3 μM, CHO-K1 cells expressing human SGLT2) [%] | inhibition at 0.3 µM (human SGLT1; 0.3 μM, CHO-K1 cells expressing human SGLT1) [%]
1 | OC[C@H]1O[C@@H](c2cc(Cc3cc4ccccc4s3)c(Cl)cc2O)[C@H](O)[C@@H](O)C1(F)F [Compound 27, (2S,3R,4R,6R)-2-[5-(benzothiophen-2-ylmethyl)-4-chloro-2-hydroxy-phenyl]-5,5-difluoro-6-(hydroxymethyl)tetrahydropyran-3,4-diol] | 4.2 | 71.3 | 93 | – | – | – | – | –
2 | Cc1ccc(Cc2cc([C@@H]3O[C@H](CO)C(F)(F)[C@H](O)[C@H]3O)c(O)cc2Cl)cc1 [Compound 171, (2S,3R,4R,6R)-2-(4-chloro-2-hydroxy-5-(4-methylbenzyl)phenyl)-5,5-difluoro-6-(hydroxymethyl)-tetrahydro-2H-pyran-3,4-diol] | 0.5 | 86.4 | 12 | – | – | 82.4 | – | –
3 | CCc1ccc(Cc2cc([C@@H]3O[C@H](CO)C(F)(F)[C@H](O)[C@H]3O)c(O)cc2OC)cc1 [Compound 145] | 2.8 | 78.1 | 83 | – | – | 64.4 | – | –
4 | COc1cc(OC)c([C@@H]2O[C@H](CO)[C@@](C)(F)[C@H](O)[C@H]2O)cc1Cc1ccc2c(c1)OCCO2 [Compound 9, (2S,3R,4R,5S,6R)-2-[5-(2,3-dihydro-1,4-benzodioxin-6-ylmethyl)-2,4-dimethoxy-phenyl]-5-fluoro-6-(hydroxymethyl)-5-methyl-tetrahydropyran-3,4-diol] | – | – | – | – | – | – | 58.7 | 25.3
5 | COc1cc(C)c(Cc2ccc(OCF)cc2)cc1[C@@H]1O[C@H](CO)C(F)(F)[C@H](O)[C@H]1O [Compound 138] | 1.9 | 40.3 | 836 | – | – | 76.7 | – | –
6 | OC[C@H]1O[C@@H](c2cc3c(c(Cc4ccc(C5CC5)cc4)c2)OCC3)[C@H](O)[C@@H](O)C1(F)F [Compound 174] | – | – | – | 82.9 | 38.0 | – | – | –
7 | CCOc1ccc(Cc2cc([C@@H]3O[C@H](CO)C(F)(F)[C@H](O)[C@H]3O)c(O)cc2Cl)cc1 [Compound 162] | 1.5 | 56.5 | 127 | – | – | 73 | – | –
8 | COc1cc(Cl)c(Cc2ccc(C)s2)cc1[C@@H]1O[C@H](CO)C(F)(F)[C@H](O)[C@H]1O [Compound 165] | 0.7 | 54.7 | 40 | – | – | 73.2 | – | –
9 | Cc1cc(O)c([C@@H]2O[C@H](CO)C(F)(F)[C@H](O)[C@H]2O)cc1Cc1cc2cc(F)ccc2s1 [Compound 52] | 19 | 41.3 | 229 | – | – | 81.2 | – | –
10 | OC[C@H]1O[C@@H](c2cc(Cc3ccc(Cl)s3)c(Cl)cc2O)[C@H](O)[C@@H](O)C1(F)F [Compound 167] | 0.8 | 75.7 | 20 | – | – | 83.4 | – | –
11 | COc1cc(OC)c([C@@H]2O[C@H](CO)C(F)(F)[C@H](O)[C@H]2O)cc1Cc1cc2c(s1)CCN(C(C)=O)C2 [Compound 77] | – | – | – | 51.4 | 22.6 | – | – | –
12 | CCc1cc(O)c([C@@H]2O[C@H](CO)C(F)(F)[C@H](O)[C@H]2O)cc1Cc1cc2ccccc2s1 [Compound 26, (2S,3R,4R,6R)-2-[5-(benzothiophen-2-ylmethyl)-4-ethyl-2-hydroxy-phenyl]-5,5-difluoro-6-(hydroxymethyl)tetrahydropyran-3,4-diol] | 32.9 | – | 44 | – | – | – | – | –
13 | Cc1ccc(Cc2cc([C@@H]3O[C@H](CO)C(F)(F)[C@H](O)[C@H]3O)c(O)cc2Cl)s1 [Compound 161] | 2.5 | 87.8 | 35 | – | – | 87.6 | – | –

Other lines, results leading:

Row | IC50 (human SGLT2; [1]) [nM] | inhibition at 0.3 µM (human SGLT1; [2]) [%] | IC50 (human SGLT1; [3]) [nM] | SGLT2 % Inh @ 0.3 μM (human SGLT2; [4]) [%] | SGLT1 % Inh @ 0.3 μM (human SGLT1; [2]) [%] | inhibition at 0.3 µM (human SGLT2; [4]) [%] | inhibition at 0.3 µM (human SGLT2; 0.3 μM, CHO-K1 cells expressing human SGLT2) [%] | inhibition at 0.3 µM (human SGLT1; 0.3 μM, CHO-K1 cells expressing human SGLT1) [%] | SMILES
14 | – | – | – | 84.4 | 20.4 | – | – | – | COc1cc(Cl)c(Cc2ccc([C@@H]3CCOC3)cc2)cc1[C@@H]1O[C@H](CO)C(F)(F)[C@H](O)[C@H]1O [Compound 50]
15 | 1.8 | 47.9 | 250 | – | – | 61.2 | – | – | CCOc1ccc(Cc2cc([C@@H]3O[C@H](CO)C(F)(F)[C@H](O)[C@H]3O)c(O)cc2C)cc1 [Compound 47, (2S,3R,4R,6R)-2-(5-(4-ethoxybenzyl)-2-hydroxy-4-methylphenyl)-5,5-difluoro-6-(hydroxymethyl)tetrahydro-2H-pyran-3,4-diol]
16 | – | – | – | 87.1 | 28.7 | – | – | – | OC[C@H]1O[C@@H](c2cc(Cc3ccc4c(c3)CCCO4)c(Cl)c3c2OCC3)[C@H](O)[C@@H](O)C1(F)F [Compound 126]
17 | – | – | – | 52.3 | 15.5 | – | – | – | COC(=O)N1CCc2sc(Cc3cc([C@@H]4O[C@H](CO)C(F)(F)[C@H](O)[C@H]4O)c(OC)cc3OC)cc2C1 [Compound 75]
18 | 2 | 78.3 | 65 | – | – | 93 | – | – | Cc1cc(O)c([C@@H]2O[C@H](CO)C(F)(F)[C@H](O)[C@H]2O)cc1Cc1ccc2c(c1)OCCO2 [Compound 56, (2S,3R,4R,6R)-2-(5-((2,3-dihydrobenzo[b][1,4]dioxin-6-yl)methyl)-2-hydroxy-4-methylphenyl)-5,5-difluoro-6-(hydroxymethyl)tetrahydro-2H-pyran-3,4-diol]
19 | – | – | – | 91.8 | 38.9 | – | – | – | OC[C@H]1O[C@@H](c2cc(Cc3ccc(OC(F)(F)F)cc3)c(Cl)cc2O)[C@H](O)[C@@H](O)C1(F)F [Compound 105]
20 | 1.3 | 67.7 | 153 | – | – | 90.6 | – | – | Cc1cc(O)c([C@@H]2O[C@H](CO)C(F)(F)[C@H](O)[C@H]2O)cc1Cc1ccc(OCF)cc1 [Compound 133]
21 | 2.7 | 64.4 | 96 | – | – | 88.6 | – | – | CCc1ccc(Cc2cc([C@@H]3O[C@H](CO)C(F)(F)[C@H](O)[C@H]3O)c(O)cc2C)cc1 [Compound 131, (2S,3R,4R,6R)-2-(5-(4-ethylbenzyl)-2-hydroxy-4-methylphenyl)-5,5-difluoro-6-(hydroxymethyl)tetrahydro-2H-pyran-3,4-diol]
22 | 108 | 49.9 | 779 | – | – | 85.7 | – | – | [2H]C([2H])(c1ccc2c(c1)OCCO2)c1cc([C@@H]2O[C@H](CO)C(F)(F)[C@H](O)[C@H]2O)ccc1CC [Compound 192]
23 | 1.6 | 66.6 | 70 | – | – | 94.4 | – | – | COc1ccc(Cc2cc([C@@H]3O[C@H](CO)C(F)(F)[C@H](O)[C@H]3O)c(O)cc2C)cc1 [Compound 108, (2S,3R,4R,6R)-5,5-difluoro-2-[2-hydroxy-5-[(4-methoxyphenyl)methyl]-4-methyl-phenyl]-6-(hydroxymethyl)tetrahydropyran-3,4-diol]
24 | – | – | – | 76.4 | 31.8 | – | – | – | COCCOc1cc(C)c(Cc2cc3ccccc3s2)cc1[C@@H]1O[C@H](CO)C(F)(F)[C@H](O)[C@H]1O [Compound 39]
